Test results: publication PMC8464905, “Novel c-Jun N-Terminal Kinase (JNK) Inhibitors with an 11H-Indeno[1,2-b]quinoxalin-11-one Scaffold” (Molecules, 2021)
Where two headings read alike, the source gives them in different places.

What was measured:
JNK1 [1] = biological target: T1, JNK1 (Homo sapiens, UniProt P45983); details: previously identified inhibitors; ref [35],[36]; cited from earlier work
T1 construct: purchased Eurofins Pharma Discovery (KINOMEscan)

JNK2 [2] = biological target: T2, JNK2 (Homo sapiens, UniProt P45984); details: previously identified inhibitors; ref [35],[36]; cited from earlier work
T2 construct: purchased Eurofins Pharma Discovery (KINOMEscan)

JNK3 [3] = biological target: T3, JNK3 (Homo sapiens, UniProt P53779); details: previously identified inhibitors; ref [35],[36]; cited from earlier work
T3 construct: purchased Eurofins Pharma Discovery (KINOMEscan)

JNK1 [4] = biological target: T1, JNK1; assay: KINOMEscan Kd determination, JNK1; details: duplicate, mean, N.B. = no binding at < 30 μM
Experimental: (§1) Selected compounds were submitted for dissociation constant (Kd) determination using KINOMEscan (Eurofins Pharma Discovery, San Diego, CA, USA), as described previously. […] Primary screening at fixed concentrations of compounds was performed in duplicate.

JNK2 [5] = biological target: T2, JNK2; assay: KINOMEscan Kd determination, JNK2; details: duplicate, mean, N.B. = no binding at < 30 μM
Experimental: as §1

JNK3 [6] = biological target: T3, JNK3; assay: KINOMEscan Kd determination, JNK3; details: duplicate, mean, N.B. = no binding at < 30 μM
Experimental: as §1

JNK1-3 = assay: KINOMEscan binding, statements for all three JNK isoforms; details: summary of Table 3
Experimental: as §1

[7] = CellTiter-Glo cytotoxicity in THP-1Blue cells; assay type: cell-based, human; details: human, THP-1Blue cells; 24-h incubation, up to 50 μM; read-out: THP-1Blue Cell Cytotoxicity IC50
Experimental: (§2) All cells were cultured at 37 °C in a humidified atmosphere containing 5% CO2. THP1-Blue cells obtained from InvivoGen (San Diego, CA, USA) were cultured in RPMI 1640 medium (Mediatech Inc., Herndon, VA, USA) supplemented with 10% (v/v) fetal bovine serum (FBS), 100 μg/mL streptomycin, 100 U/mL penicillin, 100 μg/mL phleomycin (Zeocin), and 10 μg/mL blasticidin S. Human monocyte-macrophage MonoMac-6 cells (Deutsche Sammlung von Mikroorganismen und Zellkulturen GmbH, Braunschweig, Germany) were grown in RPMI 1640 medium supplemented with 10% (v/v) FBS, 10 μg/mL bovine insulin, 100 μg/mL streptomycin, and 100 U/mL penicillin.
(§3) Cytotoxicity was analyzed with a CellTiter-Glo Luminescent Cell Viability Assay Kit from Promega (Madison, WI, USA), according to the manufacturer’s protocol. Cells were treated with compounds under investigation and incubated for 24 h. After treatment, the cells were equilibrated to room temperature for 30 min, substrate was added, and the samples were analyzed with a Fluoroscan Ascent FL (Thermo Fisher Scientific, Waltham, MA, USA). The IC50 values were calculated by plotting percentage inhibition against the logarithm of inhibitor concentration (at least five points).

[8] = CellTiter-Glo cytotoxicity in MonoMac-6 cells; assay type: cell-based, human; details: human, MonoMac-6 cells; 24-h incubation, up to 50 μM; read-out: MonoMac-6 Cell Cytotoxicity IC50
Experimental: as §2, §3

NF-κB/AP-1 = assay: LPS-induced NF-κB/AP-1 alkaline phosphatase reporter assay in THP1-Blue cells; assay type: cell-based; details: Homo sapiens; 30 min pretreatment, 250 ng/mL LPS for 24 h; read-out: THP-1Blue Cell NF-κB/AP-1 IC50
Experimental: as §2
Activation of AP-1/NF-κB was measured using an alkaline phosphatase reporter gene assay in THP1-Blue cells. Human monocytic THP-1 Blue cells are stably transfected with a secreted embryonic alkaline phosphatase gene that is under the control of a promoter inducible by NF-κB/AP-1. THP1-Blue cells (2 × 10^5 cells/well) were pretreated with test compound or DMSO for 30 min, followed by addition of 250 ng/mL lipopolysaccharide (LPS) for 24 h, and alkaline phosphatase activity was measured in cell supernatants using QUANTI-Blue mix (InvivoGen) as absorbance at 655 nm and compared with positive control samples (LPS). For selected compounds, the concentrations of inhibitor that caused 50% inhibition of the NF-κB reporter activity (IC50) were calculated.

IL-6 = assay: LPS-induced IL-6 production in MonoMac-6 cells (ELISA); assay type: cell-based; details: Homo sapiens, MONO-MAC-6; 30 min pretreatment, 250 ng/mL LPS for 24 h; read-out: MonoMac-6 Cell IL-6 IC50
Experimental: as §2
A human IL-6 ELISA kit (BD Biosciences, San Jose, CA, USA) was measure IL-6 production. MonoMac-6 cells were plated in 96-well plates at a density of 2 × 10^5 cells/well in culture medium supplemented with 3% (v/v) endotoxin-free FBS. The cells were pretreated with test compound or DMSO for 30 min, followed by addition of 250 ng/mL LPS for 24 h. IC50 values for IL-6 production were calculated by plotting percentage inhibition against the logarithm of inhibitor concentration (at least five points).

THP-1Blue cells = assay: CellTiter-Glo cytotoxicity in THP-1Blue cells; assay type: cell-based, human; details: 24-h incubation, up to 50 μM
Experimental: as §2, §3

MonoMac-6 cells = assay: CellTiter-Glo cytotoxicity in MonoMac-6 cells; assay type: cell-based, human; details: 24-h incubation, up to 50 μM
Experimental: as §2, §3

phospho-c-Jun (Ser63) = assay: LPS-induced c-Jun (Ser63) phosphorylation in MonoMac-6 cells (Western blotting); assay type: cell-based, human; details: 30 min pretreatment, LPS 250 ng/mL 30 min
Experimental: MonoMac-6 monocytic cells were pretreated with different concentrations of the compounds under investigation for 30 min and treated with LPS (250 ng/mL) or vehicle for another 30 min. Cells were washed twice with Hanks’ balanced salt solution, and cell lysates were prepared using lysis buffer from the JNK kinase assay kit (Cell Signaling Technology, Danvers, MA). Cell lysates (from 5 × 10^6 cells) were separated on ExpressPlus 4–20% PAGE Gels (GenScript, Piscataway, NJ, USA) using TRIS-MOPS running buffer (GenScript) and transferred to nitrocellulose membranes. The blots were probed with antibodies against c-Jun, phospho-c-Jun (Ser63), and total c-Jun (Cell Signaling Technology, Danvers, MA, USA), followed by horseradish peroxidase-conjugated secondary antibody (Cell Signaling Technology). The blots were developed using SuperSignal West Femto chemiluminescent substrate (Thermo Fisher Scientific) and visualized with a FluorChem FC2 imaging system (Alpha Innotech Corporation, San Leandro, CA, USA). Quantitation of the chemiluminescent signal was performed using AlphaView software (ver. 3.0; Alpha Innotech).

T1 sequence (P45983 whole entry): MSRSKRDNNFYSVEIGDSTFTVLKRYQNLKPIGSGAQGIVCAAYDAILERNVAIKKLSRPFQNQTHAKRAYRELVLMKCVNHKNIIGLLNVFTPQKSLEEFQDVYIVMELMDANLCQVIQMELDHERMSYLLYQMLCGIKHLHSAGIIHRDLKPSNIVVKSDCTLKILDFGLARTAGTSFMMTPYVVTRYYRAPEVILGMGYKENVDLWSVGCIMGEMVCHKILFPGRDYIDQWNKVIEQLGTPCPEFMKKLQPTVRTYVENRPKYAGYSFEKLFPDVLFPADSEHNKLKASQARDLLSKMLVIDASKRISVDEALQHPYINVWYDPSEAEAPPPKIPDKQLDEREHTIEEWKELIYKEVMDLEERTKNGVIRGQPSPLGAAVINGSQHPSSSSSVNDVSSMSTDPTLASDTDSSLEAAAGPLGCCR
T3 sequence (P53779 whole entry): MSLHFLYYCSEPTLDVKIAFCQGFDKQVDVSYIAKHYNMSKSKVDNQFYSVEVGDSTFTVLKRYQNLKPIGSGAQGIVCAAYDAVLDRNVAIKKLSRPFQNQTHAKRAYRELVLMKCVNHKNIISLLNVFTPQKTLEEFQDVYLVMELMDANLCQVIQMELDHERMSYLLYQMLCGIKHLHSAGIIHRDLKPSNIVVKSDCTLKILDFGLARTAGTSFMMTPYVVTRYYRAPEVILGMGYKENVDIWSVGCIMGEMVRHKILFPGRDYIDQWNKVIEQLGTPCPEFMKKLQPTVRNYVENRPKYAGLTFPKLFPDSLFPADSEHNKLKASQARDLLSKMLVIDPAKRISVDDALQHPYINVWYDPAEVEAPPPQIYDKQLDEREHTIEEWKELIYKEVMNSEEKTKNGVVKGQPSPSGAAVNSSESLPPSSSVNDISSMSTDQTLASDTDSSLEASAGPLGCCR
T2 sequence (P45984 whole entry): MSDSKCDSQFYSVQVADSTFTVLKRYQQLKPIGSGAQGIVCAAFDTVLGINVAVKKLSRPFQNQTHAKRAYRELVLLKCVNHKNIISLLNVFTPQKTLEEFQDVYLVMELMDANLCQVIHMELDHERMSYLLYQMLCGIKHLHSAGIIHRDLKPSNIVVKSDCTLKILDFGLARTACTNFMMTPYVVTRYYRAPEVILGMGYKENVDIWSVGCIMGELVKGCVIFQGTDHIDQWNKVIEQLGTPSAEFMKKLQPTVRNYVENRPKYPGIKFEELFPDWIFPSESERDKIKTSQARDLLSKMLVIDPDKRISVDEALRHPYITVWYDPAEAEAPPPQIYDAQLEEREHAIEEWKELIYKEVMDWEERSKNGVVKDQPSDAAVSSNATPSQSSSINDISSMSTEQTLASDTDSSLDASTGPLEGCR

SMILES | Kd (JNK1 [4]) | Kd (JNK2 [5]) | Kd (JNK3 [6]) | Binding affinity (Kd) for all three JNK isoforms, in words (JNK1-3) | IC50 (NF-κB/AP-1) | IC50 (IL-6) | melting point | JNK2 Kd (JNK2 [5]) | Kd (JNK1 [1]) | Kd (JNK2 [2]) | Kd (JNK3 [3]) | IC50 at 24 h [7] | IC50 at 24 h [8] | THP-1Blue Cell Cytotoxicity IC50 (THP-1Blue cells) | MonoMac-6 Cell Cytotoxicity IC50 (MonoMac-6 cells) | Effect on LPS-induced c-Jun (Ser63) phosphorylation (phospho-c-Jun (Ser63))
O=[N+]([O-])c1ccc2nc3c(nc2c1)-c1ccccc1/C3=N/O [B] |  |  |  |  |  |  |  |  | 6 µM | 12 µM | 4.3 µM |  |  |  |  | 
O/N=C1/c2ccccc2-c2nc3ccc(Cl)cc3nc21 [C] |  |  |  |  |  |  |  |  | 1.1 µM | 21.5 µM | 0.7 µM |  |  |  |  | 
ON=C1c2ccccc2-c2nc3c(Cl)cccc3nc21 [Compound 4b, 6-Chloro-11H-indeno[1,2-b]quinoxalin-11-one Oxime] | 0.17 ± 0.04 µM | 0.22 ± 0.06 µM | 0.14 ± 0.03 µM | submicromolar | 0.9 ± 0.3 µM | 1.2 ± 0.4 µM | 270 to 271 °C |  |  |  |  | > 50 µM | > 50 µM |  |  | 
CC(C)(C)c1ccc2nc3c(nc2c1)-c1ccccc1/C3=N/O [Compound 4d, (11Z/E)-7-tert-Butyl-11H-indeno[1,2-b]quinoxalin-11-one Oxime] | 3.1 ± 0.1 µM | 1.6 ± 0.6 µM | 3.1 ± 0.2 µM | relatively low affinity | 0.4 ± 0.1 µM | 1 ± 0.2 µM | 197 to 198 °C |  |  |  |  | > 50 µM | > 50 µM |  |  | 
ON=C1c2ccccc2-c2nc3c(C(F)(F)F)cc(C(F)(F)F)cc3nc21 [Compound 4j, 6,8-bis(Trifluoromethyl)-11H-indeno[1,2-b]quinoxalin-11-one oxime] | > 30 µM | > 30 µM | > 30 µM | inactive |  | 4.8 ± 0.5 µM | 253 to 254 °C |  |  |  |  | 36.5 ± 1.9 µM | > 50 µM | exhibited cytotoxicity |  | 
COC(=O)c1ccc2nc3c(nc2c1)C(=NO)c1ccccc1-3 [Compound 4l, Methyl-11-(hydroxyimino)-11H-indeno[1,2-b]quinoxaline-8-carboxylate] | 0.91 ± 0.16 µM | 2.4 ± 0.2 µM | 0.71 ± 0.05 µM | submicromolar |  | > 50 µM | 300 to 301 °C |  |  |  |  | 26.1 ± 5.3 µM | > 50 µM | exhibited cytotoxicity |  | 
Cc1ccc2nc3c(nc2c1)-c1ccccc1/C3=N/O [D] |  |  |  |  |  |  |  |  | 0.7 µM | 0.8 µM | 0.3 µM |  |  |  |  | 

More lines, main results first:

Kd (JNK1 [4]) | Kd (JNK2 [5]) | Kd (JNK3 [6]) | Binding affinity (Kd) for all three JNK isoforms, in words (JNK1-3) | IC50 (NF-κB/AP-1) | IC50 (IL-6) | melting point | JNK2 Kd (JNK2 [5]) | SMILES | Kd (JNK1 [1]) | Kd (JNK2 [2]) | Kd (JNK3 [3]) | IC50 at 24 h [7] | IC50 at 24 h [8] | THP-1Blue Cell Cytotoxicity IC50 (THP-1Blue cells) | MonoMac-6 Cell Cytotoxicity IC50 (MonoMac-6 cells) | Effect on LPS-induced c-Jun (Ser63) phosphorylation (phospho-c-Jun (Ser63))
0.28 ± 0.07 µM | 0.62 ± 0.01 µM | 0.19 ± 0.01 µM | submicromolar | 0.3 ± 0.1 µM | 3 ± 0.6 µM | 250 to 251 °C |  | ON=C1c2ccccc2-c2nc3cc(F)ccc3nc21 [Compound 4a, 7-Fluoro-11H-indeno[1,2-b]quinoxalin-11-one Oxime] |  |  |  | > 50 µM | > 50 µM |  |  | 
> 30 µM | > 30 µM | > 30 µM | inactive |  |  | 255 to 256 °C |  | Cc1cc(Br)cc2nc3c(nc12)-c1ccccc1C3=NO [Compound 4c, 6-Methyl-8-bromo-11H-indeno[1,2-b]quinoxalin-11-one Oxime] |  |  |  | 37.5 ± 1.7 µM | 14.6 ± 1.2 µM | exhibited cytotoxicity | cytotoxic | 
0.92 ± 0.05 µM | 1.6 ± 0.01 µM | 0.9 ± 0.3 µM | submicromolar | 0.4 ± 0.1 µM | 2.2 ± 0.2 µM | 255 to 256 °C |  | ON=C1c2ccccc2-c2nc3c(F)cc(F)cc3nc21 [Compound 4e, 6,8-Difluoro-11H-indeno[1,2-b]quinoxalin-11-one Oxime] |  |  |  | > 50 µM | > 50 µM |  |  | 
0.17 ± 0.04 µM | > 30 µM | 0.52 ± 0.3 µM |  | 1.1 ± 0.4 µM | 14 ± 2.8 µM | 250 to 251 °C | did not bind | ON=C1c2ccccc2-c2nc3cc(F)c(F)cc3nc21 [Compound 4f, 7,8-Difluoro-11H-indeno[1,2-b]quinoxalin-11-one Oxime] |  |  |  | > 50 µM | > 50 µM |  |  | inhibited c-Jun phosphorylation
0.52 ± 0.09 µM | 0.91 ± 0.06 µM | 1.1 ± 0.1 µM |  | 2.1 ± 0.4 µM |  | 257 to 258 °C |  | ON=C1c2ccccc2-c2nc3c(F)c(F)ccc3nc21 [Compound 4g, 6,7-Difluoro-11H-indeno[1,2-b]quinoxalin-11-one Oxime] |  |  |  | > 50 µM | 32 ± 2.2 µM |  | cytotoxic | 
> 30 µM | > 30 µM | > 30 µM | inactive | 2.5 ± 0.6 µM |  | 236 to 237 °C |  | ON=C1c2ccccc2-c2nc3c(Br)cc(C(F)(F)F)cc3nc21 [Compound 4h, 6-Bromo-8-(trifluoromethyl)-11H-indeno[1,2-b]quinoxalin-11-one Oxime] |  |  |  | > 50 µM | 29 ± 2.5 µM |  | cytotoxic | 
> 30 µM | > 30 µM | > 30 µM | inactive | 2.9 ± 0.9 µM | 6.2 ± 0.2 µM | 324 to 325 °C |  | O/N=C1/c2ccccc2-c2nc3c(Cl)cc(C(F)(F)F)cc3nc21 [Compound 4i, (11Z/E)-6-Chloro-8-(trifluoromethyl)-11H-indeno[1,2-b]quinoxalin-11-one Oxime] |  |  |  | > 50 µM | > 50 µM |  |  | 
> 30 µM | > 30 µM | 24.5 ± 2.1 µM |  | 0.6 ± 0.2 µM | 2.3 ± 0.4 µM | 276 to 277 °C |  | ON=C1c2ccccc2-c2nc3cc(F)c(Cl)cc3nc21 [Compound 4k, 8-Chloro-7-fluoro-11H-indeno[1,2-b]quinoxalin-11-one Oxime] |  |  |  | > 50 µM | > 50 µM |  |  | 
